Series [1] in a line: Solubility and pH of saturated solution. In kind it is physicochemical.
Series [2] is described as follows: Gravimetric Vapor Sorption (GVS) isotherm and XRPD post GVS. The class given is physicochemical. As for the experimental part:
Gravimetric Vapor Sorption (GVS) isotherms were obtained using a SMS DVS Intrinsic moisture sorption analyser, controlled by DVS Intrinsic Control software v1.0.1.2 (or v 1.0.1.3). The sample temperature was maintained at 25° C. by the instrument controls. The humidity was controlled by mixing streams of dry and wet nitrogen, with a total flow rate of 200 mL/min. The relative humidity was measured by a calibrated Rotronic probe (dynamic range of 1.0-100% RH), located near the sample. The weight change, (mass relaxation) of the sample as a function of % RH was constantly monitored by the microbalance (accuracy ±0.005 mg). Typically 5-20 mg of sample was placed in a tared mesh stainless steel basket under ambient conditions. The sample was loaded and unloaded at 40% RH and 25° C. (typical room conditions). A moisture sorption isotherm was performed as outlined below (2 scans giving 1 complete cycle). The standard isotherm was performed at 25° C. at 10% RH intervals over a 0-90% RH range. Data analysis was undertaken in Microsoft Excel using DVS Analysis Suite v6.2 (or 6.1 or 6.0).
Method Parameters for SMS DVS Intrinsic Experiments
The sample was recovered after completion of the isotherm and re-analysed by XRPD.

Series [3] in a line: Human multiple-dose pharmacokinetic comparison. In kind it is in vivo. Conditions: for Cmax / Tmax: in vivo. Here is the method:
Human Pharmacokinetic Comparison of Compound 1 X-Hydrate and Compound 1 Anhydrous Form
Table 6 compares human multiple-dose pharmacokinetic (PK) parameters between dosing with Compound 1 X-hydrate and Compound 1 Anhydrous form. Compound 1 X-hydrate was dosed at 600 mg twice daily (bid) for three days followed by dosing at 300 mg once daily (qd) for 10 days. Compound 1 Anhydrous form was dosed at 300 mg qd for 14 days.

Series [4] is described as follows: XRPD stability post 2 weeks storage at temperature and humidity. The class given is physicochemical. Here is the method:
X-Ray Powder Diffraction patterns were collected on a Bruker AXS C2 GADDS diffractometer using Cu Kα radiation (40 kV, 40 mA), automated XYZ stage, laser video microscope for auto-sample positioning and a Hi Star 2-dimensional area detector. X-ray optics consists of a single Göbel multilayer mirror coupled with a pinhole collimator of 0.3 mm. A weekly performance check is carried out using a certified standard NIST 1976 Corundum (flat plate). The beam divergence, i.e. the effective size of the X-ray beam on the sample, was approximately 4 mm. A Θ-Θ continuous scan mode was employed with a sample-detector distance of 20 cm which gives an effective […] of 3.2°-29.7°. Typically the sample would be exposed to the X-ray beam for 120 seconds. The software used for data collection was GADDS for XP/2000 4.1.43 and the data were analysed and presented using Diffrac Plus EVA v13.0.0.2 or v15.0.0.0. […]
X-Ray Powder Diffraction patterns were also collected on a Bruker D8 diffractometer using Cu Kα radiation (40 kV, 40 mA), 0-20 goniometer, and divergence of V4 and receiving slits, a Ge monochromator and a Lynxeye detector. […] The software used for data collection was Diffrac Plus XRD Commander v2.6.1 and the data were analysed and presented using Diffrac Plus EVA v13.0.0.2 or v15.0.0.0. […]

Setting [5] is: 300 mg qd for 14 days vs X-hydrate 600 mg bid for three days then 300 mg qd for 10 days.
Setting [6] is: 600 mg bid loading dose for 3 days, then 300 mg qd maintenance for 10 days.

Consider `O[C@@](Cn1cnnn1)(c1ccc(F)cc1F)C(F)(F)c1ccc(-c2ccc(OCC(F)(F)F)cc2)cn1` [Compound 1 Anhydrous], for which the “pH of saturated solution” value in series [1] (listed as Anhydrous 1) is on record as “pH of saturated solution = 8.7”. Further, the “GVS water uptake at 90% RH” value in series [2] (25° C., listed as Anhydrous 1) is 0.14% w/w water uptake at. Besides, in series [3] (300 mg qd for 14 days), the AUC0-8 h was 35653 ngh/mL, the peak level (Cmax) was 4690 ng/mL and the Tmax was 5 h. For the same compound, in series [3] (setting [5]), the “area-under-the-curve (AUC) compared with Compound 1 X-hydrate” value was “higher” and the “maximal concentration (Cmax) compared with Compound 1 X-hydrate” value is listed as “higher”.
For `O[C@@](Cn1cnnn1)(c1ccc(F)cc1F)C(F)(F)c1ccc(-c2ccc(OCC(F)(F)F)cc2)cn1` [Compound 1 X-Hydrate], the “XRPD stability post 2 weeks at 25° C. & 97% RH” value in series [4] (25° C. & 97% RH) is reported as “No change in crystalline form”. The “XRPD stability post 2 weeks at 40° C. & 75% RH” value in series [4] (40° C. & 75% RH) is reported as “No change in crystalline form”. The solubility in series [1] was under 1 µg/mL. In series [1] (listed as X-hydrate 1), the “pH of saturated solution” value is recorded as “pH of saturated solution = 8.6”. The GVS sample hysteresis in series [2] (0-90% RH, 25° C.) is listed as 90% RH. No sample hysteresis. Further, the “GVS water uptake at 90% RH” value in series [2] (25° C., listed as X-hydrate 1) was 0.59% w/w water uptake at. Further, the “XRPD post GVS” value in series [2] (after GVS experiment) is “No form change after GVS”. In addition, in series [3] (setting [6]), the AUC0-8 h is listed as 17600 ngh/mL, the Cmax is 2520 ng/mL and the Tmax was found to be 5 h.
